According to patent US20210355107A1, “MULTI-SUBSTITUTED PYRIDONE DERIVATIVES AND MEDICAL USE THEREOF” (Beijing Yuezhikangtai Biomedicines Co., Ltd., priority 2018, published 2021):

Columns and labels:
[1] = Body weight of EBC-1 tumor-bearing mice during treatment; type: in vivo; conditions: EBC-1 BALB/c-nude mice; 30 mg/kg intragastric once daily for 28 days; FIG. 2
Protocol: (§1) Test Example 5: In Vivo Anti-Tumor Activity of Compounds disclosed herein in Model Mice with Ectopically Grafted Tumor Cells
(§2) 3×10^6 cells of human non-small cell lung cancer tumor cell strain EBC-1 (ATCC) were inoculated subcutaneously into BALB/c-nude model mice (Beijing AniKeeper Biotech, 10 female mice). When the subcutaneous tumors in mice each grew to 175.5 mm^3, the mice were administered intragastrically with test samples.
The mice were divided into a negative control group and an example compound group (compound of Example 3) (30 mg/kg) with 5 mice per group. The mice in the negative control group were administered with 10% solutol HS-15, which was prepared by adding 10 mL of solutol HS-15 to 90 mL of ddH2O and then mixing well by vortexing. The mice in the example compound group were administered with a compound solution at a concentration of […] which was prepared by dissolving the compound of Example 3 in 10% solutol HS-15. The mice in both the solvent control group and the example compound group were subjected to intragastric administration once daily for 28 days at a dosage of 10 μL per gram of body weight.
After the start of the administration, the body weight and tumor size of each mice were measured twice a week. The calculation formula for tumor size is as follows: […]

[2] = test system: human non-small cell lung cancer tumor cell strain EBC-1; assay: In vivo anti-tumor activity in model mice with ectopically grafted EBC-1 tumor cells; conditions: EBC-1 subcutaneous tumors in BALB/c-nude mice; 30 mg/kg intragastric once daily for 28 days; FIG. 1
Protocol: as §1, §2
The mice were divided into a negative control group and an example compound group (compound of Example 3) (30 mg/kg) with 5 mice per group. The mice in the negative control group were administered with 10% solutol HS-15, which was prepared by adding 10 mL of solutol HS-15 to 90 mL of ddH2O and then mixing well by vortexing. […]
After the start of the administration, the body weight and tumor size of each mice were measured twice a week. […]
The anti-tumor efficacy was evaluated based on the growth curve of the tumor (i.e., tumor volume per measurement versus its treatment days) and relative tumor volume during treatment. The relative tumor inhibition (TGI) was calculated according to the following formula: […]
Relative tumor volume RTV was calculated as follows: RTV=[…], where V0 is the tumor volume of the animal at the time of grouping, and Vt is the tumor volume of the animal after treatment.

CCn1cc(-c2cnc(N)c(-c3ccc(NC(=O)c4cn(C(C)C)c(C#N)c(-c5ccc(F)cc5)c4=O)cc3F)c2)cn1 [Example 3, N-(4-(2-amino-5-(1-ethyl-1H-pyrazol-4-yl)pyridin-3-yl)-3-fluoro-phenyl)-6-cyano-5-(4-fluorophenyl)-1-isopropyl-4-oxo-1,4-dihydropyridine-3-carboxamide]
body weight change of tumor-bearing mice [1]: does not change significantly
tumor growth inhibition (TGI) [2]: up to 108%
